Assay [1] concerns HCT-116. Description: Potency index, ratio imatinib IC50 to compound IC50 for human HCT116 cells. Type of assay: functional.
In assay [2] the test system is HCT-116. Kind of assay: Anticancer activity against human HCT116 cells. Type of assay: functional, cell-based.
Assay [3] relates to HepG2. Description: Anticancer activity against human HepG2 cells. In kind it is functional, cell-based.
The subject of assay [4] is HepG2. Kind of assay: Anticancer activity against human HepG2 cells at 40 ug/ml after 72 hrs by MTT assay. Type of assay: functional. To be noted: HepG2, 72 h. In general terms: Formazan colour is commonly taken as a measure of viable cells.
Assay [5] deals with HepG2. Description: Anticancer activity against human HepG2 cells after 72 hrs by MTT assay. To be noted: HepG2, 72 h. In kind it is functional, cell-based.
Assay [6] can be described thus: Anticancer activity against human […] cells after 72 hrs by MTT assay. In kind it is functional, cell-based.
For assay [7], the system named is MCF7. Kind of assay: Anticancer activity against human MCF7 cells after 72 hrs by MTT assay. Type of assay: functional, cell-based. The note with it: MCF7, 72 h.
Assay [8] relates to MCF7. Description: Anticancer activity against human MCF7 cells at 40 ug/ml after 72 hrs by MTT assay. Type of assay: functional. The note with it: MCF7, 72 h.
Assay [9] is described as follows: Anticancer activity against human Chronic myeloid leukemia cells at 10 uM after 24 hrs by MTT assay. In kind it is functional. To be noted: Leukemia cell.
Assay [10] in a line: Anticancer activity against human Chronic myeloid leukemia cells at 20 uM after 24 hrs by MTT assay. In kind it is functional. The note with it: Leukemia cell.
Assay [11] concerns the target Poly [ADP-ribose] polymerase 1 (Homo sapiens, UniProt P09874). Kind of assay: Inhibition of PARP1 (unknown origin).

Poly [ADP-ribose] polymerase 1, sequence (P09874 whole entry): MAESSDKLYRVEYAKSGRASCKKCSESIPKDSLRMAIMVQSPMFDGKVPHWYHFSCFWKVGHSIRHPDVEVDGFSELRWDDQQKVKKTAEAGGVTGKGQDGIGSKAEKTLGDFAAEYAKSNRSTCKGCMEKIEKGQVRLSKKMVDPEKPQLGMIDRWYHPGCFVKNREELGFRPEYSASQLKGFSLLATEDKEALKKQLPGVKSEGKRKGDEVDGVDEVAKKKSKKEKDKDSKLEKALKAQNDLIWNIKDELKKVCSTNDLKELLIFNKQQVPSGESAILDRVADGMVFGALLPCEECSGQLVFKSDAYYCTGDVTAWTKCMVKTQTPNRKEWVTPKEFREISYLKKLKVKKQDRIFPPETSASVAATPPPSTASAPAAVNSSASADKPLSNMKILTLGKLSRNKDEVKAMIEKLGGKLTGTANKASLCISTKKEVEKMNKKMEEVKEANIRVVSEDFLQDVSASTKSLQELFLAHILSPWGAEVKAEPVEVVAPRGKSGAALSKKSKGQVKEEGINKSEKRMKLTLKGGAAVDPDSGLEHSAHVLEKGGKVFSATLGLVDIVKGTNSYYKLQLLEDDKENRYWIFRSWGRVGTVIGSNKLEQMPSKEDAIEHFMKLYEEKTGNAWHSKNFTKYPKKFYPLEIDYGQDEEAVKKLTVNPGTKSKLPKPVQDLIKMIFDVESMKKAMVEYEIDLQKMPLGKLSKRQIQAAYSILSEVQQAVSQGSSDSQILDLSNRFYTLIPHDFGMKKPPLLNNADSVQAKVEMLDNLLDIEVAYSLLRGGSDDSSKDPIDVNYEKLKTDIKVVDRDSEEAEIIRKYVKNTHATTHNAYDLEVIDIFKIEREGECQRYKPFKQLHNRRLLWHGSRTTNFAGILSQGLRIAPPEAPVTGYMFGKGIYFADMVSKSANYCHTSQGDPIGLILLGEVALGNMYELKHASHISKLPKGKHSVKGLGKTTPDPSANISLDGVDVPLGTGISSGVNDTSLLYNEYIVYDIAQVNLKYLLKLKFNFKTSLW

On to `O=c1[nH]c(CNc2ccccc2)nc2sc3c(c12)CCCCCC3`, for which the “Ratio IC50” value in the assay on HCT-116 [1] is 2.89. Also, in the assay with HCT-116 [2], the IC50 was 11.9 µM.

In the case of `O=c1[nH]c(CNc2ccc(Cl)cc2)nc2sc3c(c12)CCCCCC3`, in the assay on HCT-116 [1], the “Ratio IC50” value is listed as 1.07. In the assay with HCT-116 [2], half-maximal inhibition (IC50) was put at 12.4 µM.

Regarding `CC(=O)OC[C@H](OC(C)=O)[C@@H](OC(C)=O)[C@H](OC(C)=O)[C@H](OC(C)=O)c1nc2c3c4c(sc3nc(C)n2n1)CCc1ccccc1-4`, the midpoint of inhibition in the assay on HepG2 [3], the IC50, lay at 12 µM.

`O=c1c2c3c(sc2ncn1Cc1ccc(Br)cc1)CCC=C3`: the inhibition at 40 µg/mL with HepG2 [4] and in the assay on MCF7 [8] was 66.8% throughout. Also, the half-inhibitory concentration (IC50) in the assay with HepG2 [5] is 15 µM; in assay [6], 45 µM; with MCF7 [7], 78.9 µM.

In turn, `CC(C)(O)C#Cc1ncnc2sc3c(c12)CCC3` returned an inhibition at 10 µM in assay [9] of 30%. Besides, the inhibition at 20 µM in assay [10] was determined as 54%.

Turning to `Cc1csc2ncnc(C#Cc3ccccn3)c12`, 10 µM produced 32% inhibition in assay [9]. Besides, the inhibition at 20 µM in [10] came to 60%.

For the compound `NCc1nc2sc3c(c2c(=O)[nH]1)CCC3`, half-maximal inhibition in assay [11] (IC50) required 17 µM.

For `O=c1[nH]cc(F)c(=O)[nH]1` [FLUOROURACIL], the inhibition at 40 µg/mL with HepG2 [4] and with MCF7 [8] was 68.2% in each case.

`Cc1ccc(NC(=O)c2ccc(CN3CCN(C)CC3)cc2)cc1Nc1nccc(-c2cccnc2)n1` [IMATINIB] registered an IC50 in the assay on HCT-116 [2] of 34.4 µM.

A word on the IC50: it is the concentration that gives 50% inhibition. Read a low IC50 as higher potency. The inhibition is the change of the read-out against control, counted positive when it falls.

The values above are taken from ChEMBL document CHEMBL3616428, “Recent developments regarding the use of thieno[2,3-d]pyrimidin-4-one derivatives in medicinal chemistry, with a focus on their synthesis and anticancer properties” (Eur J Med Chem, 2015).
